# Results as given in PMC5062470, “The mGluR2 positive allosteric modulator, SAR218645, improves memory and attention deficits in translational models of cognitive symptoms associated with schizophrenia” (Scientific Reports, 2016).
# Experiments:
# OF1 mice = assay: 6-Hz electroshock-induced seizures; assay type: in vivo; settings: dose-range 10–30, ip
# Description: SAR218645 (10 and 30 mg/kg, po) and the reference anticonvulsant agent, levetiracetam (20 mg/kg), were administered ip. to OF1 mice (12–14 g) 30 min prior to test, respectively. An electrical stimulus (6 Hz, 0.2 ms rectangular pulse, 3 s duration, 32 mA) was applied to both corneas. Animals were closely observed and rated for seizure behavior according to a modified Racine scale. Kruskal-Wallis multiple comparisons test was used to assess potential differences between treatment groups.
# Sprague-Dawley rats = assay: Catalepsy test; assay type: in vivo; settings: 30, po
# Description: Male Sprague-Dawley rats weighing 225–234 g were used. Each animal was placed such that their forepaws rested on a wooden dowel (1 × 18 cm) mounted horizontally 9 cm from the floor and 4 cm from one end of a white translucent plastic box (26 × 20 × 15 cm). The amount of time each rat spent with at least one forepaw on the bar was determined, for a maximum period of 540 s. This procedure was repeated three times. White noise was used during the acclimation and test periods to minimize the effects of outside noises. SAR218645 was administered alone at a dose of 30 mg/kg po. Haloperidol (1 mg/kg ip) was used alone and in co-administration with SAR218645 (1, 3, and 10 mg/kg, po). Statistics consisted of using a one-way ANOVA, followed by a post-hoc Dunnett’s test for individual comparisons. Ten animals per group were used.
# human mGluR1 = target: T1, human mGluR1 (Homo sapiens, UniProt Q13255); assay: Multispan Allosteric Profiling panel, Ca2+ (Gqi5); assay type: cell-based
# T1 construct: host or cells: HEK293 co-expressing Gqi5
# T1 sequence (Q13255 19-1194): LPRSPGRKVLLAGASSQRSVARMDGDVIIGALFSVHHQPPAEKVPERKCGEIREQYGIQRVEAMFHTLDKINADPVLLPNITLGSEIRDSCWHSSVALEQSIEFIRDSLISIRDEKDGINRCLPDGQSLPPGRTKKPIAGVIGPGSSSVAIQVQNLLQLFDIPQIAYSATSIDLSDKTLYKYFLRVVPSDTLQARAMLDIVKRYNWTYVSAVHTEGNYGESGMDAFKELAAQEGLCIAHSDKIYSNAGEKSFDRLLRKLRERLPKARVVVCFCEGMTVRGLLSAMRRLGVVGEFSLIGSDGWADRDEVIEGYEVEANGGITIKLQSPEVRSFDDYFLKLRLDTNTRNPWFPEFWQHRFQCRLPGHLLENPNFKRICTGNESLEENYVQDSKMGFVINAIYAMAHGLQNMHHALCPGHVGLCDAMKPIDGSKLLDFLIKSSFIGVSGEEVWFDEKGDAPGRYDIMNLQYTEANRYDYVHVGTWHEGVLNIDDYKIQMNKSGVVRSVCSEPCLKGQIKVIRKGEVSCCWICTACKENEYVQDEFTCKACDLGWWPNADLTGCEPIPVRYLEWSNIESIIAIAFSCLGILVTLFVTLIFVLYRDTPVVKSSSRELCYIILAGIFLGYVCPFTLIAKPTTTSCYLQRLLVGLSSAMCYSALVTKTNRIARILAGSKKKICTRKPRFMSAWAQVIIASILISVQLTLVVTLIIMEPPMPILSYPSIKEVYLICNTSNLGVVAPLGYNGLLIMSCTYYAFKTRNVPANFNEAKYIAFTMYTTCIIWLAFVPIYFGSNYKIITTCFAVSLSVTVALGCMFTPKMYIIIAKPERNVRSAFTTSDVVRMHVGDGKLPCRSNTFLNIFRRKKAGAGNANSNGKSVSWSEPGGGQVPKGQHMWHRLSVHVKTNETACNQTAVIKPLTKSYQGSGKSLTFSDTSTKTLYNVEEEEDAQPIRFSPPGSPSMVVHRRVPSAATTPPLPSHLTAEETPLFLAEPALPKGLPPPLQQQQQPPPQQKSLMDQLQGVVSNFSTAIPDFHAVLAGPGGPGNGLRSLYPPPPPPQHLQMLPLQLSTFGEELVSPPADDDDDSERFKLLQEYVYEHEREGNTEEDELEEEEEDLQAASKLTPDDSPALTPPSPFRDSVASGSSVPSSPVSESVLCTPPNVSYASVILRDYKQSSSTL
# human mGluR3 = target: T2, human mGluR3 (Homo sapiens, UniProt Q14832); assay: Multispan Allosteric Profiling panel, Ca2+ (Gqi5); assay type: cell-based
# T2 construct: host or cells: HEK293 co-expressing Gqi5
# T2 sequence (Q14832 23-879): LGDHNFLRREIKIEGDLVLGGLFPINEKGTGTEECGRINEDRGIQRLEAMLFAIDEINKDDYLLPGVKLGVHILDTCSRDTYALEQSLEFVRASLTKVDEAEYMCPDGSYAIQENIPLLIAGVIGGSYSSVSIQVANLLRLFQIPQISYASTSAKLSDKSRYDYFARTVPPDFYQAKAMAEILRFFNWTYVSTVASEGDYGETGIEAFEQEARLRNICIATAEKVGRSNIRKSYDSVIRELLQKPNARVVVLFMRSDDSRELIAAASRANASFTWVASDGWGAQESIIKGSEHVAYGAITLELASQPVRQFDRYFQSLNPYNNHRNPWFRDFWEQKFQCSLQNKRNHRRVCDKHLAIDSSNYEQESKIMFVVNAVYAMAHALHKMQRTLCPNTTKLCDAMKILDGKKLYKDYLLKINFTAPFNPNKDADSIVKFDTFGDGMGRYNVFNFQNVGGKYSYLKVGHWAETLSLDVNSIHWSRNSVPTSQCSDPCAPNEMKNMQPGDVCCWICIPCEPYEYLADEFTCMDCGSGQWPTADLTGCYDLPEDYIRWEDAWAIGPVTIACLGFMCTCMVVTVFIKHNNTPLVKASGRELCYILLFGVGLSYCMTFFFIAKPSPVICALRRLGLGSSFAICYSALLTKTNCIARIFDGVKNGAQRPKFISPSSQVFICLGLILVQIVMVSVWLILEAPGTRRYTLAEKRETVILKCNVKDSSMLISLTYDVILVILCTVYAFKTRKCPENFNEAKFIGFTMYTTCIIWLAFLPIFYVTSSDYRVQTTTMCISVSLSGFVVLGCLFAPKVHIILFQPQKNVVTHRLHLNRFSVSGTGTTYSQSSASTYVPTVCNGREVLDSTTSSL
# mice = tested on: mice; parameters: method as in earlier work; settings: cited from earlier work
# C57BL/6J mice = assay: Amphetamine-induced disruption of latent inhibition (LI); assay type: in vivo; settings: dose-range 0.1–10, po
# Description: The procedure was based on that described by Lipina et al.[39]. Briefly, male C57BL/6J mice (20–30 g, 6–8-week-old) were water restricted and trained to drink in an operant chamber for 15 min over 5 daily sessions. The LI procedure was completed in the following stages each given 24 h apart: (a) Pre-exposure: The preexposed (PE) animals received 40, 85-dB white noise presentations in the chamber for 50 min; the non-preexposed (NPE) animals were confined to the chamber for the same period but without the presence of the tone. (b) Conditioning: All mice received 2 tone-shock (1 s, 0.37 mA) pairings in the chamber. (c) Test: Each mouse was placed in the chamber and allowed to drink. After completing 75 licks, the white noise was presented and lasted until the mouse completed 100 licks. For data analysis, the time during 50–75 licks (A period) and the time to complete licks 76–100 (after tone onset; B period) was calculated into a suppression ratio defined as A/(A+B). A low suppression ratio indicates a stronger suppression of drinking. LI is defined as an […] in suppression ratio (little or no suppression), whereas a shorter time to complete licks 76–100 of the pre-exposed mice compared to the non-pre-exposed mice. Data (i.e. suppression ratio) were analyzed using the Friedman nonparametric two-way ANOVA model. […]
# CD-1 mice = assay: DOI-induced head-twitch behaviors; assay type: in vivo
# Description: Male CD-1 mice weighing 25–30 g at the time of testing were used. Animals were brought into the testing area and allowed at least 30 min to acclimatize. The behavior observation was conducted in a wire test chamber measuring 10 cm^3. SAR218645 or the selective 5-HT2A receptor antagonist, volinanserin, was administered po at various times before administration of DOI. DOI was injected ip at a dose of 1 mg/kg. Five minutes later behavioral observation commenced. A trained (blinded) observer continuously watched the mice for 20 min and noted the number of DOI-induced head twitches during this time. The number of head twitches per group was averaged and SAR218645 or volinanserin plus DOI were compared to DOI alone. Three to eight animals per group were used.
# [1] = Plasma exposure and brain penetration after single oral dose; assay type: in vivo, mice; settings: male; for AUC(0-inf) / AUC(0-t): CD-1, mouse; for AUC(0-t): tlast 8 h; for Cmax: mouse, CD-1 mice
# Description: Plasma and brain exposures of SAR218645 in male CD-1 mice (25–30 g at arrival) were measured after single oral doses of 1, 3 and 10 mg/kg. Mouse plasma samples (25.0 μl) were transferred into micro-centrifuge tubes (1.7 ml) and mixed with 50 μl of Internal Standard solution (500 ng/ml in acetonitrile). The tubes were vortex mixed for 1 min and centrifuged at 10,000 g for 5 min. An aliquot of the supernatant (50 μl) was transferred into an autosampler vial and mixed with 100 μl of water for LC/MS/MS analysis. Each mouse brain was first homogenized with 3.0 ml of 25% acetonitrile in water. The tissue homogenates (50.0 μl) were transferred into micro-centrifuge tubes (1.7 ml) and mixed with 100 μl of Internal Standard solution (500 ng/ml of A000597492 in acetonitrile). The tubes were vortex mixed for 1 min and centrifuged at 10,000 g for 5 min. An aliquot of the supernatant (50 μl) was transferred into an autosampler vial and mixed with 100 μl of water for LC/MS/MS analysis. The lower limits of quantitation (LLOQ) for SAR218645 were 0.500 ng/ml for plasma and 0.100 ng/ml for brain homogenate. The calibration curves were linear in the above prepared concentration ranges. The LLOQ for brain tissue was estimated to be approximately 0.80 ng/g. The pharmacokinetic parameters were calculated from the arithmetic mean of the group sample concentrations using the program WinNonLin 5.2., non-compartment model 200 for the extravascular routes.
structure (smiles),measurement,setting,value
"CC1(C)CCc2cc(OC[C@@H]3Cn4ccc(=O)nc4O3)ccc21 [SAR218645, (S)-2-(1,1-dimethyl-indan-5-yloxymethyl)-2,3-dihydro-oxazolo[3,2-a]pyrimidin-7-one]",Minimal active dose,OF1 mice,>30 mg/kg
same,Minimal active dose,Sprague-Dawley rats,>30 mg/kg
same,effect on glutamate-induced activation,human mGluR1; 10 μM SAR218645,no effect
same,calcium response to compound alone,human mGluR1; SAR218645 alone,did not elicit a calcium response
same,effect on glutamate-induced increases in intracellular calcium,human mGluR3; 10 μM SAR218645,no effect
same,calcium response to compound alone,human mGluR3; SAR218645 alone,did not elicit a calcium response
same,effect on the activity of risperidone in the active avoidance test,mice,did not interfere
same,Minimal active dose,C57BL/6J mice,1 mg/kg
same,Minimal active dose,"CD-1 mice; dose-range 1–10, po, CD-1 mice",3 mg/kg
same,effect on DOI-induced head twitches,"CD-1 mice; po, DOI 1 mg/kg ip, significant at 3 and 10 mg/kg",dose-dependently inhibited
same,AUC(0-inf),"[1]; plasma, 1 mg/kg oral",230 ng·h/mL
same,AUC(0-t),"[1]; plasma, 1 mg/kg oral",230 ng·h/mL
same,AUC(0-inf),"[1]; plasma, 3 mg/kg oral",540 ng·h/mL
same,AUC(0-t),"[1]; plasma, 3 mg/kg oral",540 ng·h/mL
same,AUC(0-inf),"[1]; plasma, 10 mg/kg oral",2400 ng·h/mL
same,AUC(0-t),"[1]; plasma, 10 mg/kg oral",2300 ng·h/mL
same,Cmax,"[1]; brain, 1 mg/kg oral",32 ng/g
same,Cmax,"[1]; brain, 3 mg/kg oral",103 ng/g
same,Cmax,"[1]; brain, 10 mg/kg oral",339 ng/g
same,Cmax,"[1]; plasma, 1 mg/kg oral",131 ng/mL
same,Cmax,"[1]; plasma, 3 mg/kg oral",434 ng/mL
same,Cmax,"[1]; plasma, 10 mg/kg oral",1080 ng/mL
